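In this assay, cells in 96-well plates receive the compound at five concentrations for 48 hours. Endpoints are linearly interpolated between the surrounding concentrations. GI50 is the concentration that inhibits growth by half.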 Activity calls are given as the source filed them. Cut-off read from the data, not from the text of the source: active = GI50 up to about 1.1 µM and inactive = higher.

What all share (experiment): inhibition of tumour cell growth, NCI panel, 48 h
Assay [1] concerns NCI-H23.
In assay [2] the test system is M14.
In assay [3] the test system is SK-MEL-2.
The test system of assay [4] is SF-539.
Assay [5] has as its system HOP-92.
Assay [6] has as its system SF-295.
For assay [7], the system named is KM12.
Assay [8] relates to ACHN.
For assay [9], the system named is HL-60.
Assay [10] has as its system 786-0.
Assay [11] concerns NCI-H522.
Assay [12] deals with RPMI-8226.
The test system of assay [13] is SK-OV-3.
The subject of assay [14] is CAKI-1.
Assay [15] deals with MOLT-4.
The subject of assay [16] is COLO 205.
Assay [17] concerns HCT-116.
The subject of assay [18] is MCF7.

On to `Oc1cc(-c2ccccc2)nc2cc(Cl)ccc12`, for which the GI50 is 1.1 µM (active) in [1]; 0.555 µM (active) in assay [2]; 0.445 µM (active) in assay [3]; 0.412 µM (active) in [4]; 0.376 µM (active) in [5]; 0.368 µM (active) in [6]. The GI50 in [7] is 0.695 µM (active); in assay [8], 0.914 µM (active); in assay [9], 0.24 µM (active); in assay [10], 0.507 µM (active); in assay [11] it was 0.112 µM (active); in assay [12] it was 0.422 µM (active). The GI50 in [13] was 0.493 µM (active); in assay [14], 0.283 µM (active); in assay [15] it was 0.675 µM (active); in assay [16], 0.697 µM (active); in assay [17], 0.339 µM (active).

As to `O=C1OC(CCCl)(c2ccccc2)CC1CN1CCOCC1` (stereo not drawn), the GI50 is 8.95 µM (inactive) in [1]; 20.4 µM (inactive) in assay [2]; 24.3 µM (inactive) in [3]; 27.2 µM (inactive) in assay [4]; 16.6 µM (inactive) in assay [5]; 43 µM (inactive) in [6]. Also, the GI50 in assay [7] was 20.2 µM (inactive); in assay [8], 32.2 µM (inactive); in assay [9], 9.77 µM (inactive); in assay [10], 12.1 µM (inactive); in assay [11] it was 18.7 µM (inactive); in assay [12], 3.84 µM (inactive). Also, the GI50 in assay [13] is > 100 µM (inactive); in [14] it was 8.49 µM (inactive); in assay [15], 18 µM (inactive); in assay [16] it was 18.9 µM (inactive).

On to `Cc1ccc(F)c2c(=O)cc(-c3ccccc3)[nH]c12`, for which the GI50 in assay [1], in assay [2], in assay [3], in [4], in assay [5] and in [6] was > 100 µM (inactive) in each case. The GI50 is 98.2 µM (inactive) in [7]; > 100 µM (inactive) in assay [8]; > 100 µM (inactive) in assay [9]; > 100 µM (inactive) in assay [10]; > 100 µM (inactive) in [11]; > 100 µM (inactive) in assay [12]. In addition, the GI50 in assay [13], in assay [14], in assay [15], in assay [16] and in assay [17] was > 100 µM (inactive) in each case.

On to `CC(=O)NNc1ncc(C(=O)/C=C/c2ccccc2C)s1`, for which the GI50 in assay [1], in [3], in [4], in assay [5], in assay [6] and in assay [7] was > 100 µM (inactive) throughout. Besides, the GI50 in assay [8], in [9], in assay [10], in assay [11], in assay [12] and in assay [13] was > 100 µM (inactive) in each case. Moreover, the GI50 in assay [14], in assay [15] and in assay [16] was > 100 µM (inactive) each time.

Consider `CCOc1ccc(N(CC(=O)N2CC(=O)Nc3cc(C)c(C)cc32)C(C)=O)cc1`, for which the GI50 was > 100 µM (inactive) in [1]; > 100 µM (inactive) in assay [2]; > 100 µM (inactive) in assay [3]; > 100 µM (inactive) in assay [4]; 83.2 µM (inactive) in assay [5]; > 100 µM (inactive) in [6]. The GI50 in assay [7], in assay [8], in assay [9], in assay [10], in assay [11] and in [12] was > 100 µM (inactive) throughout. The GI50 in assay [13], in assay [14], in [15], in assay [16] and in assay [17] was > 100 µM (inactive) in each case.

With `O=C(NCCn1ccnn1)Nc1ccccc1`, the GI50 in [1], in assay [18], in assay [2], in assay [3], in assay [5] and in assay [6] was > 100 µM (inactive) in each case. The GI50 in assay [7], in assay [8], in assay [9], in assay [10], in assay [11] and in [12] was > 100 µM (inactive) in each case. Besides, the GI50 in assay [14], in [15] and in [16] was > 100 µM (inactive) throughout.

Regarding `CCOc1cn(C2OC(CO)C(O)C2O)c(=O)[nH]c1=O` (stereo not drawn), the GI50 in [1], in [2], in [3], in assay [5], in assay [6] and in [7] was > 100 µM (inactive) each time. In addition, the GI50 in assay [8], in assay [9], in [10], in assay [11], in [12] and in assay [13] was > 100 µM (inactive) throughout. The GI50 was > 100 µM (inactive) in assay [14], > 100 µM (inactive) in assay [15], 95.5 µM (inactive) in assay [16] and > 100 µM (inactive) in assay [17].

Take `CC(=O)C1=CN=C2C(=O)N(c3ccccc3)N(C)C12C` (stereo not drawn): the GI50 in assay [1], in assay [18], in assay [2], in assay [3], in assay [4] and in [5] was > 100 µM (inactive) in each case. The GI50 in assay [6] is > 100 µM (inactive); in assay [7] it was 3.08 µM (inactive); in assay [8], > 100 µM (inactive); in [9], > 100 µM (inactive); in [10], > 100 µM (inactive); in [11] it was > 100 µM (inactive). Also, the GI50 in [12], in assay [13], in [14], in assay [15], in [16] and in assay [17] was > 100 µM (inactive) each time.

For `CO[C@H]1CC[C@]2(C)C3=CC[C@@]4(C)C(CC[C@@H]4C(C)CC[C@@H](C)C(C)C)C(=CCC2C1)O3` (stereo partly drawn), the GI50 in assay [1] is > 7.91 µM (inactive); in assay [2] it was > 25 µM (inactive); in [3], > 25 µM (inactive); in assay [4], > 25 µM (inactive); in assay [5], > 22.7 µM (inactive); in assay [6], > 25 µM (inactive). Further, the GI50 in assay [7], in assay [8], in assay [9], in assay [10], in assay [11] and in assay [12] was > 25 µM (inactive) throughout. For the same molecule, the GI50 in [13] is > 25 µM (inactive); in [14], 10.2 µM (inactive); in assay [15], > 25 µM (inactive); in [16], > 25 µM (inactive); in assay [17], > 25 µM (inactive).

The values above are taken from ChEMBL document CHEMBL1201862, “PubChem BioAssay data set” (2004).
